These results are taken from article PMC4290623, “Homopharma: A new concept for exploring the molecular binding mechanisms and drug repurposing” (BMC Genomics, 2014).

One may read the IC50 as the point on the concentration scale where inhibition reaches its midpoint.

Common to all, as to experiment: In vitro enzymatic profiling, HotSpot assay platform
What all share (assay type): biochemical

In assay [1] the target is T1, AKT2 (Homo sapiens, UniProt P31751).
T1 construct: purchased Reaction Biology Corporation
T1 sequence (P31751 whole entry): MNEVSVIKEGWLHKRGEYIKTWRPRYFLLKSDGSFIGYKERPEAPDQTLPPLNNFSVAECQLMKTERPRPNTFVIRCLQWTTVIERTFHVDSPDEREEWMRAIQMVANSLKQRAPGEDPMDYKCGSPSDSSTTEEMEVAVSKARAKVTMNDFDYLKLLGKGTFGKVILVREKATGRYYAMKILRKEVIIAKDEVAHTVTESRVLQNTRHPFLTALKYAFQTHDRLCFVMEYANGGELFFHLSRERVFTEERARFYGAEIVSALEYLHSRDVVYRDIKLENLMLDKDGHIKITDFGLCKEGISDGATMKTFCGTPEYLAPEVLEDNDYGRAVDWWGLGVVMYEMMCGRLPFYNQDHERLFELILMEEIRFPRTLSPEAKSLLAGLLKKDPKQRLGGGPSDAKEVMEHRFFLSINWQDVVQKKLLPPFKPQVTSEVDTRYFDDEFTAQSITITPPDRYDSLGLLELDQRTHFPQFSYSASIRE
The conditions noted are these: inhibitor 10 μM, ATP 10 μM. How it is done: (§1) In vitro enzymatic profiling of the 32 member kinase panel was performed at Reaction Biology Corporation (http://www.reactionbiology.com, Malvern, PA) using the "HotSpot" assay platform. Each kinase activity assay was performed in duplicate with inhibitor concentration of 10 μM and an ATP concentration of 10 μM.

Assay [2] has as its target T2, EGFR (Homo sapiens, UniProt P00533).
T2 construct: purchased Reaction Biology Corporation
The conditions noted are these: inhibitor 10 μM, ATP 10 μM. Here is the method: as §1

Assay [3] has as its target T3, IGF1R (Homo sapiens, UniProt P08069).
T3 construct: purchased Reaction Biology Corporation
The note with it: inhibitor 10 μM, ATP 10 μM; for IC50: duplicate, read-out: IC50 (bioactivity in the kinome picture). How it is done:
as §1

Assay [4] concerns the target T4, KIT (Homo sapiens, UniProt P10721).
T4 construct: purchased Reaction Biology Corporation
The note with it: inhibitor 10 μM, ATP 10 μM. How it is done:
as §1

Assay [5] deals with T5, LCK (Homo sapiens, UniProt P06239).
T5 construct: purchased Reaction Biology Corporation
The conditions noted are these: inhibitor 10 μM, ATP 10 μM. How it is done: as §1

In assay [6] the target is T6, MAPK3 (Homo sapiens, UniProt P27361).
T6 construct: purchased Reaction Biology Corporation
The note with it: inhibitor 10 μM, ATP 10 μM. How it is done:
as §1

Assay [7] concerns the target T7, SRC (Homo sapiens, UniProt P12931).
T7 construct: purchased Reaction Biology Corporation
The conditions noted are these: inhibitor 10 μM, ATP 10 μM. Here is the method: as §1

Assay [8] deals with T8, CSNK2A1 (Homo sapiens, UniProt P68400).
T8 construct: purchased Reaction Biology Corporation
The conditions noted are these: inhibitor 10 μM, ATP 10 μM, duplicate, read-out: IC50 (bioactivity in the kinome picture). Here is the method: In vitro enzymatic profiling of the 32 member kinase panel was performed at Reaction Biology Corporation (http://www.reactionbiology.com, Malvern, PA) using the "HotSpot" assay platform. […]

In assay [9] the target is T9, CHEK2 (Homo sapiens, UniProt O96017).
T9 construct: purchased Reaction Biology Corporation
T9 sequence (O96017 whole entry): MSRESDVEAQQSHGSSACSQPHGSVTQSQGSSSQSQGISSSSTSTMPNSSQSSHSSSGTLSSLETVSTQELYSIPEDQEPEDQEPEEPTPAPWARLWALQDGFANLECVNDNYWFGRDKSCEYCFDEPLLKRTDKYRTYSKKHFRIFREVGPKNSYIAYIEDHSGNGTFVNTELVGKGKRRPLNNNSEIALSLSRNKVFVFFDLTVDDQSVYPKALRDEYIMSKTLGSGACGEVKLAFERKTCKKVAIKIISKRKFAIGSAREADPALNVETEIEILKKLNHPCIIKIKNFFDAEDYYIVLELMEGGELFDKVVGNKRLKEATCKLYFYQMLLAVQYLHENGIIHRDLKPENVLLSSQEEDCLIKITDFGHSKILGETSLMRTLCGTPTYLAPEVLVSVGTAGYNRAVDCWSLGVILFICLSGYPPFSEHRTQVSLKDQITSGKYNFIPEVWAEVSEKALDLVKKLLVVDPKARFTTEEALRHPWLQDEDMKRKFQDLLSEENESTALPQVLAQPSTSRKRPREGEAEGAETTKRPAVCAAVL
The conditions noted are these: inhibitor 10 μM, ATP 10 μM. How it is done:
as §1

Assay [10] concerns the target T10, FGFR1 (Homo sapiens, UniProt P11362).
T10 construct: purchased Reaction Biology Corporation
The conditions noted are these: inhibitor 10 μM, ATP 10 μM; for IC50: duplicate, read-out: IC50 (bioactivity in the kinome picture). Here is the method: as §1

The target in assay [11] is T11, LIMK1 (Homo sapiens, UniProt P53667).
T11 construct: purchased Reaction Biology Corporation
The conditions noted are these: inhibitor 10 μM, ATP 10 μM. How it is done: as §1

For assay [12], the target named is T12, CAMK2G (Homo sapiens, UniProt Q13555).
T12 construct: purchased Reaction Biology Corporation
The conditions noted are these: inhibitor 10 μM, ATP 10 μM, duplicate, read-out: IC50 (bioactivity in the kinome picture). How it is done:
In vitro enzymatic profiling of the 32 member kinase panel was performed at Reaction Biology Corporation (http://www.reactionbiology.com, Malvern, PA) using the "HotSpot" assay platform. Each kinase activity assay was performed in duplicate with inhibitor concentration of 10 μM and an ATP concentration of 10 μM. […] Another compound JMY84 could also be used as drug candidates of colorectal cancer due to its effects on CHEK2, LIMK1, and FGFR1 (Figures 5D and 5E).

The target in assay [13] is T13, INSR (Homo sapiens, UniProt P06213).
T13 construct: purchased Reaction Biology Corporation
The conditions noted are these: inhibitor 10 μM, ATP 10 μM, duplicate, read-out: IC50 (bioactivity in the kinome picture). Here is the method: as §1

T3 sequence (P08069 31-1367): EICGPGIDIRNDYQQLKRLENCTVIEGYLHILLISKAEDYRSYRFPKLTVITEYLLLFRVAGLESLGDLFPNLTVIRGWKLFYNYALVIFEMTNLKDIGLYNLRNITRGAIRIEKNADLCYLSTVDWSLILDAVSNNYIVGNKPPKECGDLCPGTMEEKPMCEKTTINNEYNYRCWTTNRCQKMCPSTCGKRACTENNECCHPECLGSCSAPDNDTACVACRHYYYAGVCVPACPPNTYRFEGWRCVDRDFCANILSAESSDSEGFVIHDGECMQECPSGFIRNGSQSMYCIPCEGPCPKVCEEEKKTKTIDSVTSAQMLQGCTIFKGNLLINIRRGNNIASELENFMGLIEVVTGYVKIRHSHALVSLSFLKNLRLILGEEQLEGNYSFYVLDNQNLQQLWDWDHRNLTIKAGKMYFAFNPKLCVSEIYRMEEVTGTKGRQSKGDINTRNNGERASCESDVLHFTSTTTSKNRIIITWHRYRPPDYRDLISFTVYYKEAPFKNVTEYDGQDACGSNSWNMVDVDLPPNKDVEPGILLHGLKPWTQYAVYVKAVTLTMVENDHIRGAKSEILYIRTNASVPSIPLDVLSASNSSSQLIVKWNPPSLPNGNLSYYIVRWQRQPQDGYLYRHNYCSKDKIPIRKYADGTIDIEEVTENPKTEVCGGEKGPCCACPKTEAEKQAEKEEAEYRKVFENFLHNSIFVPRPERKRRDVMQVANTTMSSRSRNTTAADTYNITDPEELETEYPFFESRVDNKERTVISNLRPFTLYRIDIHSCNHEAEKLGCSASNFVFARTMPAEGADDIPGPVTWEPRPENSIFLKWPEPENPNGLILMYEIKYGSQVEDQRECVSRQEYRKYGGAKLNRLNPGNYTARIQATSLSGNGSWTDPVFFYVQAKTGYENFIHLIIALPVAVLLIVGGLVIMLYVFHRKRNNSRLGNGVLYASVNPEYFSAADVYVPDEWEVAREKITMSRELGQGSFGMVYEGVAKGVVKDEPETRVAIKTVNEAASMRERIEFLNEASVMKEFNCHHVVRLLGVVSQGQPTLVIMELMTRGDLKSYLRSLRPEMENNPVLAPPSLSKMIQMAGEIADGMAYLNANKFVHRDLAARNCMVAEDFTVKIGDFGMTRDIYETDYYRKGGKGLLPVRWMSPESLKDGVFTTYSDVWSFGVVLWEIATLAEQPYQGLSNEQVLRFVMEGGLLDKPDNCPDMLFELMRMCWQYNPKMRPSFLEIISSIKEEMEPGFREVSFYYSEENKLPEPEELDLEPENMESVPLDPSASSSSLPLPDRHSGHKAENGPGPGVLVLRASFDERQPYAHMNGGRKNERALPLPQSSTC
T10 sequence (P11362 22-822): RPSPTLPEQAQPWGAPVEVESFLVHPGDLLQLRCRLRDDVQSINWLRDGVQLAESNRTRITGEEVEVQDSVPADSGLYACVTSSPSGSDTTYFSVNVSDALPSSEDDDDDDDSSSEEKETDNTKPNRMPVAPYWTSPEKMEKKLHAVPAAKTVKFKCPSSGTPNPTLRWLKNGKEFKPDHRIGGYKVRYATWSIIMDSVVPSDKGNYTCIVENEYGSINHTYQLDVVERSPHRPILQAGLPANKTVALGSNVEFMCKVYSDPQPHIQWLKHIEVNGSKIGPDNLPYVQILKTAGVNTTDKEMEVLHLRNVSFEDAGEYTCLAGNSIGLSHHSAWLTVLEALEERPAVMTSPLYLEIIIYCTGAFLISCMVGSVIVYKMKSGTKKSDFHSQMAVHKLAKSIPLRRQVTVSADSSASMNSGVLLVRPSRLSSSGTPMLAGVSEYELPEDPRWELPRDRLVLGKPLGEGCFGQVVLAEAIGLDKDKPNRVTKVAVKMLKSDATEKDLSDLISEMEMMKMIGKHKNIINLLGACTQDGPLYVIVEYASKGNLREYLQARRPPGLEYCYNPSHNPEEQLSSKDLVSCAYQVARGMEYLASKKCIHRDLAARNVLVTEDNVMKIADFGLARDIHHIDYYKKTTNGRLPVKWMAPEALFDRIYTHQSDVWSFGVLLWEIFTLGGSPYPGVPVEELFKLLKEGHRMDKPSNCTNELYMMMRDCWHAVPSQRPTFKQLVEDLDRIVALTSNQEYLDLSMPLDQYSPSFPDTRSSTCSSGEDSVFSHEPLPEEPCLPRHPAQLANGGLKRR
T7 sequence (P12931 whole entry): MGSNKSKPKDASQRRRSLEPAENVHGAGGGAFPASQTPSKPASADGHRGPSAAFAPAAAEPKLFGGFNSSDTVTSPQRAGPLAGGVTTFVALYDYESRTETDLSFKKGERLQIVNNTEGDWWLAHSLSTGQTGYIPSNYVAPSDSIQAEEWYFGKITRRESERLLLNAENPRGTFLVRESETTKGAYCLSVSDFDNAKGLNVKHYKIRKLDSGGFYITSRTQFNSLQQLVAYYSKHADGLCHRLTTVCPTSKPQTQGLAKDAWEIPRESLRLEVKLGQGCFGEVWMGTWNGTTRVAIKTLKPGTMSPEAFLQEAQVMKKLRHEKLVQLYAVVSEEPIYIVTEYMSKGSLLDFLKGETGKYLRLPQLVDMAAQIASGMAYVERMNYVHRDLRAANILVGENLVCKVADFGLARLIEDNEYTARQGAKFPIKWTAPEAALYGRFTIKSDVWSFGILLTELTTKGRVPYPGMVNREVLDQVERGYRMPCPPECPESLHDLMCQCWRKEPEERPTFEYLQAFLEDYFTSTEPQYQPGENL
T2 sequence (P00533 25-1210): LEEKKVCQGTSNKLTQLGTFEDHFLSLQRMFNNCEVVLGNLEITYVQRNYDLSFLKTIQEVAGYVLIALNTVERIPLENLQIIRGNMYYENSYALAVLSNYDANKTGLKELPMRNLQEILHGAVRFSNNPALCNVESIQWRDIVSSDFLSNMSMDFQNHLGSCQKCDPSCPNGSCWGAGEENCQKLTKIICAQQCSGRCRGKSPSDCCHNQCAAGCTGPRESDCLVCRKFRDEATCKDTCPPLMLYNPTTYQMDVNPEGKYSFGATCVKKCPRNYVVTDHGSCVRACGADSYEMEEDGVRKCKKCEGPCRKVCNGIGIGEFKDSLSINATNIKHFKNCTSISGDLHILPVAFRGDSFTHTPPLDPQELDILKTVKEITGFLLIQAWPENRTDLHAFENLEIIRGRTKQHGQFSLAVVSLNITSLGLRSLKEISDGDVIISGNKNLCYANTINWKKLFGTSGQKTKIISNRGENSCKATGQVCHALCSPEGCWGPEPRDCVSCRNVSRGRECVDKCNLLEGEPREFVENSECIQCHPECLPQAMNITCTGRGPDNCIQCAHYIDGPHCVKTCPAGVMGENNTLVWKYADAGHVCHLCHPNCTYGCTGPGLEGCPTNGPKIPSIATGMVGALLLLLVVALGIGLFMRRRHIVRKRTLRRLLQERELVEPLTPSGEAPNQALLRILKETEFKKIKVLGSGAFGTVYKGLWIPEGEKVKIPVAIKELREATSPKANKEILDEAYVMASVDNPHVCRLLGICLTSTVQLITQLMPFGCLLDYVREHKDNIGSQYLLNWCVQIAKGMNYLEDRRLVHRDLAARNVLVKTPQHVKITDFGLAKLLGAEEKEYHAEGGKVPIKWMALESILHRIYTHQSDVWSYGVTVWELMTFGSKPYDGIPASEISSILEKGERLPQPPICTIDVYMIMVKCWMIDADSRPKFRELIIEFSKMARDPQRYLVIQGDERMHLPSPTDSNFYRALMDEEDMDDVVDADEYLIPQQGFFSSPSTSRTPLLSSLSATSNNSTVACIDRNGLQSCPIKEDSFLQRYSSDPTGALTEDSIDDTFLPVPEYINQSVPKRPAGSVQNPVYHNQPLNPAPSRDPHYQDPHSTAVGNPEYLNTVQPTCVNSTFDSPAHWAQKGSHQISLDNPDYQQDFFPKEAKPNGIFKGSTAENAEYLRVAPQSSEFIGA

For the molecule `O=C(Oc1cc(O)c2c(c1)OC(c1ccc(O)c(O)c1)C(O)C2)c1cc(O)c(O)c(O)c1` (stereo not drawn) [JMY65], the “inhibitory effect (in words)” value in [1], in assay [2], in assay [3] and in assay [6] was “inhibitory effects” each time. Further, the IC50 in assay [3] was about 100 nM; in assay [7] (duplicate, read-out: IC50 (bioactivity in the kinome picture)), about 500 nM. In addition, the “inhibitory activity (in words)” value in assay [4], in assay [5] and in assay [7] was “inhibitory activities” each time.

On to `O=c1c(O)c(-c2ccc(OC3OC(CO)C(O)[C@@H](O)C3O)c(O)c2)oc2cc(O)cc(O)c12` (stereo partly drawn) [JMY84], for which, in assay [8], the concentration for half-maximal inhibition (IC50) was about 1000 nM. Further, the “effect on kinase (in words)” value in assay [9], in [10] and in assay [11] was “effects” in each case.

`O=c1c(O)c(-c2ccc(O)c(O)c2)oc2cc(O)cc(O)c12` [Quercetin, quercetin, reference compound]: the IC50 in [10] and in [12] was about 1000 nM each time.

Turning to `O=c1cc(-c2ccccc2)oc2cc(O)c(O)c(O)c12` [JMY51], the figures for the IC50 in [10], in assay [3] and in assay [13] were about 3000 nM, about 1000 nM and about 2000 nM, respectively.
